Experimental data published in US8450308B2 (Vitae Pharmaceuticals, Inc., priority 2008, dated 2013).

target: T1, truncated human beta-secretase (residues 1-458, His6-tagged at the C-terminus) (Homo sapiens, UniProt P56817); assay: BACE fluorescence quench assay; assay type: biochemical; settings: in vitro enzyme activity, BACE fluorescence assay, pH 4.5; read-out: IC50
T1 construct: truncated human beta-secretase (residues 1-458, His6-tagged at the C-terminus); His6 (C); made in house; host or cells: insect cells D. melanogaster S2 (baculovirus expression system (so in the source))
T1 sequence (P56817 22-458): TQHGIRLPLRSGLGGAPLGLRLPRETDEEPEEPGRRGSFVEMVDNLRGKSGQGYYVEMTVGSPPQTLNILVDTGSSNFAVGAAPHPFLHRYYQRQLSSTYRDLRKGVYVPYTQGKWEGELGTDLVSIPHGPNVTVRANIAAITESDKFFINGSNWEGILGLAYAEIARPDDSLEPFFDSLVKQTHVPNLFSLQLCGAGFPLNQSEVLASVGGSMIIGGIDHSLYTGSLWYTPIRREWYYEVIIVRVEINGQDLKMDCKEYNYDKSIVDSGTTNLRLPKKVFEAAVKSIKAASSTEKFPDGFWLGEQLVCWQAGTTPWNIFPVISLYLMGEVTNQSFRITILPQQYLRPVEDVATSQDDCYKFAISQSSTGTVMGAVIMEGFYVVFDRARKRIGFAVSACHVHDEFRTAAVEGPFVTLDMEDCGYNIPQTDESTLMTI

| IC50 | SMILES |
| --- | --- |
| 0.1 to 0.5 µM | CN1O[C@]2(C[C@H]([C@H]3CCCOC3)Oc3ccc(-c4cc(F)cc(F)c4)cc32)N=C1N (racemic) [Compound 316, (±)-(2S,4R)-6-(3,5-difluorophenyl)-2′-methyl-2-((R)-tetrahydro-2H-pyran-3-yl)-2′H-spiro[chroman-4,5′-[1,2,4]oxadiazol]-3′-amine] |
| 0.1 to 0.5 µM | CN1O[C@]2(C[C@H]([C@@H]3CCCOC3)Oc3ccc(-c4cc(F)cc(F)c4)cc32)N=C1N (racemic) [Compound 322, (2S,4R/2R,4S)-6-(3,5-difluorophenyl)-2′-methyl-2-((S/R)-tetrahydro-2H-pyran-3-yl)-2′H-spiro[chroman-4,5′-[1,2,4]oxadiazol]-3′-amine] |
| 0.1 to 0.5 µM | CN1O[C@]2(C[C@@H]([C@@H]3CCCOC3)Oc3ccc(-c4cc(F)cc(F)c4)cc32)N=C1N (racemic) [Compound 323, (±)-(2S,4S)-6-(3,5-difluorophenyl)-2′-methyl-2-((R)-tetrahydro-2H-pyran-3-yl)-2′H-spiro[chroman-4,5′-[1,2,4]oxadiazol]-3′-amine] |
| 1 to 5 µM | CN1OC2(CC3(CC4CCC3OC4)Oc3ccc(-c4cccc(C#N)c4)cc32)N=C1N (single isomer, unassigned) [Compound 379] |
| 1 to 5 µM | CN1OC2(C[C@]3(CC4CCC3OC4)Oc3ccc(-c4cccc(C#N)c4)cc32)N=C1N (single isomer, unassigned) [Compound 403] |
| 1 to 5 µM | CN1OC2(C[C@@]3(CC4CCC3OC4)Oc3ccc(-c4cccc(C#N)c4)cc32)N=C1N (single isomer, unassigned) [Compound 408] |
| 0.1 to 0.5 µM | CN1C(=O)C2(C[C@@H](C3CCCc4ccccc43)Oc3ccc(-c4cccc(C#N)c4)cc32)N=C1N (stereo in doubt) [Compound 282, 3-(2′-amino-1′-methyl-5′-oxo-2-(1,2,3,4-tetrahydronaphthalen-1-yl)-1′,5′-dihydrospiro[chroman-4,4′-imidazole]-6-yl)benzonitrile] |

test system: not listed separately; assay: BACE cell assay: soluble Amyloid Beta 1-40 (Aβ 1-40) in culture media of H4-APPsw cells; assay type: cell-based; settings: in vitro cell activity, H4-APPsw cells, secreted Aβ 1-40, overnight treatment; read-out: IC50
Experimental: H4 neuroglioma cell line that stably expresses Amyloid Precursor Protein (APP) containing the KM-NL Swedish mutation (H4-APPsw) was generated. For the assay, cells are treated overnight in the presence of inhibitor and the culture media are subjected to ELISA analysis of soluble Amyloid Beta 1-40 (Aβ 1-40).
H4 neuroglioma cell line was cultured in DMEM with 10% FBS and 1% penicillin/streptomycin (Culture Medium) at 37° C., 5% CO2. […] 24 hrs after transfection, the cells were replaced into three new plates (150 mm) in fresh Culture Medium with 250 ug/ml Zeocin. […] The levels of APPsw expression were analyzed by immunoblotting and the production of Aβ 1-40 was detected by ELISA of culture supernatants. The selected clones are maintained in Culture Medium with 250 μg/ml Zeocin and routinely split in 3-4 days to maintain 20-80% confluence.
Split cells. Split H4-APPsw cells in Culture Medium and culture overnight such that cells will be ˜80% confluent next morning.
Create Compound Dilution Plate. After determining the desired final concentration of compound to be tested, create a 500× dilution plate. Add DMSO, but not inhibitor, to each well of Column 1. […] Add compounds of interest at 500× desired final concentration to wells A3-A10. Add DMSO, but not inhibitor, to each well of Columns 11 and 12. Dilute contents of Row A 1:3 in Row B. then continue through Rows C—H.
Create Media Plate. To create a 2× solution of compound in media, add 996 μL Culture Medium to each well of a 96-well 2 ml deep well plate (Media Plate) in biosafety hood. Add 4 μL 5 mM control compound to Media Plate wells A1-D1 for determination of full inhibition.
Add media to Cell Plate. With a multichannel pipettor, mix each well of Media Plate several times to insure homogeneity. Add 100 μL of mixture to Black polymer bottom P-D-L plates. Next, place Medium Plate and Cell Plate in the incubator.
Add cells to Cell Plate. Trypsinize and count H4-APPsw cells. Dilute cells 6×10^5 cells/ml in Culture Medium and remove Cell Plate from incubator. Vortex cells to homogeneity, then using a multichannel repeating pipettor, add 100 μL cell suspension to Cell Plate, adding cells from Row H to Row A. Place Cell Plate in incubator.
Change media in Cell Plate. After 5 h, check Cell Plate by microscope to insure cells are attached. In culture hood, remove media from Cell Plate using multichannel repeating pipettor. Add 100 μl Culture Medium to each well. Remove Media Plate from incubator and mix with pipettor as previous. Add 100 μl from each well of Media Plate to corresponding well in Cell Plate. Place Cell Plate in incubator overnight.
Perform ELISA to determine levels of secreted Aβ 1-40. After 16 h incubation, spin Cell Plate for 8 min at 1200 rpm. The primary reading of Aβ 1-40 levels is done using PerkinElmer AlphaLISA technology. Follow the manufacturer's protocol for performing AlphaLISA in a white ½ area Optiwell plate using Row 12 for peptide standard (1:2 dilutions, starting at 15 ng/ml). Data are acquired using PerkinElmer Fusion-Alpha FP-HT, Alpha protocol (Count Time 0.6 s, Count Time Ratio 30%:70%).
Export data from Fusion using Columnar Report format into a separate file for each plate. Upload data into Activity Base using RIA-DOSE-RESPONSE protocol (Version 1). Data from at least eight doses were fitted to a four parameter logistical model using XLfit software to determine potency.

| SMILES | IC50 |
| --- | --- |
| CN1C(=O)[C@@]2(C[C@]3(CCCOC3)Oc3ccc(-c4cccc(C(F)(F)F)c4)cc32)N=C1N [Compound 243] | 0.1 to 0.5 µM |
| Cc1cccc(-c2ccc3c(c2)C2(CC(C4CCOC(C)(C)C4)O3)N=C(N)N(C)C2=O)c1F (centres unmarked) [Compound 244] | 0.1 to 0.5 µM |
| CN1C(=O)[C@@]2(C[C@@H](C3CCCc4ccccc43)Oc3ccc(-c4cccc(C#N)c4)cc32)N=C1N (some centres unmarked) [Compound 245] | 0.5 to 1 µM |
| CN1O[C@@]2(C[C@H](C3CCCc4ccccc43)Oc3ccc(-c4cccc(C#N)c4)cc32)N=C1N (some centres unmarked) [Compound 247] | 0.5 to 1 µM |
| CN1OC2(CC(C3CCOC(C)(C)C3)Oc3ccc(-c4cc(C#N)cc(C#N)c4)cc32)N=C1N (centres unmarked) [Compound 248] | 0.1 to 0.5 µM |
| CC1CC[C@@]2(CO1)C[C@]1(N=C(N)N(C)O1)c1cc(-c3ccc(F)c(Cl)c3)ccc1O2 (some centres unmarked) [Compound 249] | 1 to 5 µM |
| CN1C(=O)[C@@]2(C[C@]3(CCCOC3)Oc3ccc(-c4cc(F)cc(C#N)c4)cc32)N=C1N [Compound 250] | 0.1 to 0.5 µM |
| CN1OC2(C[C@@]3(CCCc4ccccc4C3)Oc3ccc(-c4cccc(C#N)c4)cc32)N=C1N (some centres unmarked) [Compound 251] | 0.1 to 0.5 µM |
| CN1O[C@@]2(C[C@H](C3CCCc4ccccc43)Oc3ccc(-c4ccc(F)c(Cl)c4)cc32)N=C1N (some centres unmarked) [Compound 252] | 1 to 5 µM |
| Cc1cc(Br)cc(-c2ccc3c(c2)C2(CC4(CCCOC4)O3)N=C(N)N(C)C2=O)c1F (centres unmarked) [Compound 253] | 0.5 to 1 µM |
| CN1C(=O)C2(C[C@H](C3CCOC(C)(C)C3)Oc3ccc(-c4ccc(F)c(F)c4)cc32)N=C1N (some centres unmarked) [Compound 254] | 0.1 to 0.5 µM |
| CN1C(=O)[C@@]2(C[C@]3(CCCOC3)Oc3ccc(-c4cc(C#N)cc(C#N)c4)cc32)N=C1N [Compound 255] | 0.1 to 0.5 µM |
| COc1cc(Cl)cc(-c2ccc3c(c2)[C@]2(C[C@@]4(CCCOC4)O3)N=C(N)N(C)C2=O)c1 [Compound 256] | 0.1 to 0.5 µM |
| CN1OC2(CC(C3CCOC(C)(C)C3)Oc3ccc(-c4cc(C#N)cc(C(F)(F)F)c4)cc32)N=C1N (centres unmarked) [Compound 257] | 0.1 to 0.5 µM |
| CN1O[C@]2(C[C@H](C3CCOC(C)(C)C3)Oc3ccc(-c4cccc(C#N)c4)cc32)N=C1N (some centres unmarked) [Compound 258] | 0.1 to 0.5 µM |
| CN1OC2(CC(C3CCOC(C)(C)C3)Oc3ccc(-c4cc(F)cc(C#N)c4)cc32)N=C1N (centres unmarked) [Compound 260] | 1 to 5 µM |
| CN1OC2(CC(C3CCOC(C)(C)C3)Oc3ccc(-c4cc(C#N)ccc4F)cc32)N=C1N (centres unmarked) [Compound 261] | 0.5 to 1 µM |
| CN1C(=O)[C@@]2(C[C@]3(CCCOC3)Oc3ccc(-c4cccc(OC(F)(F)F)c4)cc32)N=C1N [Compound 262] | 0.1 to 0.5 µM |
| CN1C(=O)[C@@]2(C[C@@]3(CCCOC3)Oc3ccc(-c4cc(Cl)cc(C#N)c4)cc32)N=C1N [Compound 263] | 0.1 to 0.5 µM |
| CN1OC2(CC(C3CCOC(C)(C)C3)Oc3ccc(-c4cccc(Cl)c4)cc32)N=C1N (centres unmarked) [Compound 264] | 1 to 5 µM |
| CC(C)C#Cc1ccc2c(c1)C1(CC3(CCCc4ccccc4C3)O2)N=C(N)N(C)O1 (centres unmarked) [Compound 265] | 1 to 5 µM |
| CN1O[C@]2(C[C@@]3(CCCc4ccccc43)Oc3ccc(-c4cccc(C#N)c4)cc32)N=C1N [Compound 266] | 1 to 5 µM |

The next lines start with the values.

| IC50 | SMILES |
| --- | --- |
| 5 to 10 µM | CN1O[C@]2(C[C@H]([C@H]3CCCOC3)Oc3ccc(-c4cc(F)cc(F)c4)cc32)N=C1N (racemic) [Compound 316, (±)-(2S,4R)-6-(3,5-difluorophenyl)-2′-methyl-2-((R)-tetrahydro-2H-pyran-3-yl)-2′H-spiro[chroman-4,5′-[1,2,4]oxadiazol]-3′-amine] |
| 5 to 10 µM | CN1O[C@]2(C[C@H]([C@@H]3CCCOC3)Oc3ccc(-c4cc(F)cc(F)c4)cc32)N=C1N (racemic) [Compound 322, (2S,4R/2R,4S)-6-(3,5-difluorophenyl)-2′-methyl-2-((S/R)-tetrahydro-2H-pyran-3-yl)-2′H-spiro[chroman-4,5′-[1,2,4]oxadiazol]-3′-amine] |
| 1 to 5 µM | CN1O[C@]2(C[C@@H]([C@@H]3CCCOC3)Oc3ccc(-c4cc(F)cc(F)c4)cc32)N=C1N (racemic) [Compound 323, (±)-(2S,4S)-6-(3,5-difluorophenyl)-2′-methyl-2-((R)-tetrahydro-2H-pyran-3-yl)-2′H-spiro[chroman-4,5′-[1,2,4]oxadiazol]-3′-amine] |
| 1 to 5 µM | CN1OC2(CC3(CC4CCC3OC4)Oc3ccc(-c4cccc(C#N)c4)cc32)N=C1N (single isomer, unassigned) [Compound 379] |
| 5 to 10 µM | CN1OC2(C[C@]3(CC4CCC3OC4)Oc3ccc(-c4cccc(C#N)c4)cc32)N=C1N (single isomer, unassigned) [Compound 403] |
| 5 to 10 µM | CN1OC2(C[C@@]3(CC4CCC3OC4)Oc3ccc(-c4cccc(C#N)c4)cc32)N=C1N (single isomer, unassigned) [Compound 408] |
| 1 to 5 µM | CN1C(=O)C2(C[C@@H](C3CCCc4ccccc43)Oc3ccc(-c4cccc(C#N)c4)cc32)N=C1N (stereo in doubt) [Compound 282, 3-(2′-amino-1′-methyl-5′-oxo-2-(1,2,3,4-tetrahydronaphthalen-1-yl)-1′,5′-dihydrospiro[chroman-4,4′-imidazole]-6-yl)benzonitrile] |
| 0.1 to 0.5 µM | CN1C(=O)C2(CC(C3CCCOC3)Oc3ccc(-c4cc(F)cc(F)c4)cc32)N=C1N (centres unmarked) [Compound 267] |
| 5 to 10 µM | CN1OC2(CC(C3CCCc4ccccc43)Oc3ccc(-c4cc(F)cc(C(F)(F)F)c4)cc32)N=C1N (centres unmarked) [Compound 269] |
| 0.5 to 1 µM | CN1C(=O)[C@@]2(C[C@@]3(CCCOC3)Oc3ccc(-c4cc(F)cc(Cl)c4)cc32)N=C1N [Compound 270] |
| 0.5 to 1 µM | COc1cc(F)cc(-c2ccc3c(c2)[C@]2(C[C@]4(CCCOC4)O3)N=C(N)N(C)C2=O)c1 [Compound 271] |
| 0.5 to 1 µM | C[C@H]1CC[C@]2(CO1)CC1(N=C(N)N(C)O1)c1cc(-c3cccc(C#N)c3)ccc1O2 (stereo partly drawn) [Compound 272, 3-(3″-amino-2″-methyl-4″,5″-dihydro-2″H-spiro(spiro(chroman-2,3′-[(2R,6R/2S,6S)-2,4,5,6-tetrahydro-6-methyl-pyran])-(4R/4S)-4,5″-[1,2,4]oxadiazole)-6-yl)benzonitrile] |
| 0.5 to 1 µM | CN1C(=O)C2(CC(C3CCCOC3)Oc3ccc(-c4cccc(F)c4)cc32)N=C1N (centres unmarked) [Compound 273] |
| 1 to 5 µM | COc1cc(Cl)cc(-c2ccc3c(c2)C2(CC4(CCC(C)OC4)O3)N=C(N)N(C)O2)c1 (centres unmarked) [Compound 274] |
| 0.5 to 1 µM | C[C@@H]1CC[C@@]2(CO1)CC1(N=C(N)N(C)O1)c1cc(-c3cccc(C#N)c3)ccc1O2 (stereo partly drawn) [Compound 275, 3-(3″-amino-2″-methyl-4″,5″-dihydro-2″H-spiro(spiro(chroman-2,3′-[(2R,6R/2S,6S)-2,4,5,6-tetrahydro-6-methyl-pyran])-(4S/4S)-4,5″-[1,2,4]oxadiazole)-6-yl)benzonitrile] |
| 0.5 to 1 µM | Cc1cc(C)cc(-c2ccc3c(c2)[C@]2(C[C@]4(CCCOC4)O3)N=C(N)N(C)C2=O)c1 [Compound 276] |
| 0.1 to 0.5 µM | Cc1ccc(C#N)cc1-c1ccc2c(c1)[C@]1(C[C@]3(CCCOC3)O2)N=C(N)N(C)C1=O [Compound 277] |
| 5 to 10 µM | COc1cc(Cl)cc(-c2ccc3c(c2)C2(CC(C4CCCc5ccccc54)O3)N=C(N)N(C)O2)c1 (centres unmarked) [Compound 278] |
